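Step 1: Grow cells in 96-well plates. Step 2: Expose to compound for 48 hours at 5 concentrations. Step 3: Interpolate endpoints linearly; if unreached, use highest concentration. The concentration for 50% growth inhibition is given as GI50. TGI: concentration producing complete growth inhibition.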
Tests used:
Assay in all cases: growth of human tumour cells (NCI), 48 h
HCC-2998 colon = system: HCC-2998 colon
OVCAR-5 ovarian = system: OVCAR-5 ovarian
MALME-3M melanoma = system: MALME-3M melanoma
LOX IMVI melanoma = system: LOX IMVI melanoma
OVCAR-8 ovarian = system: OVCAR-8 ovarian
HT29 colon = system: HT29 colon
M14 melanoma = system: M14 melanoma
HOP-62 NSCLC = system: HOP-62 NSCLC
UO-31 renal = system: UO-31 renal
COLO 205 colon = system: COLO 205 colon
CCRF-CEM leukemia = system: CCRF-CEM leukemia
SF-539 CNS = system: SF-539 CNS
OVCAR-4 ovarian = system: OVCAR-4 ovarian
SK-MEL-28 melanoma = system: SK-MEL-28 melanoma
KM12 colon = system: KM12 colon
CAKI-1 renal = system: CAKI-1 renal
SW-620 colon = system: SW-620 colon
NCI-H460 lung = system: NCI-H460 lung
K-562 leukemia = system: K-562 leukemia
PC-3 prostate = system: PC-3 prostate
EKVX NSCLC = system: EKVX NSCLC
HCT-15 colon = system: HCT-15 colon
DU-145 prostate = system: DU-145 prostate
ACHN renal = system: ACHN renal
NCI-H226 lung = system: NCI-H226 lung
SNB-19 CNS = system: SNB-19 CNS
A549 NSCLC = system: A549 NSCLC

S=C(Nc1ccc(Cl)cc1)Nc1ccc(Cl)cc1 (tested in a mixture with another compound)
GI50 (HCC-2998 colon): 2070 nM
TGI (HCC-2998 colon): 5.5 µM
GI50 (OVCAR-5 ovarian): 2380 nM
TGI (OVCAR-5 ovarian): 9.71 µM
GI50 (MALME-3M melanoma): 2550 nM
TGI (MALME-3M melanoma): > 100 µM
GI50 (LOX IMVI melanoma): 1710 nM
TGI (LOX IMVI melanoma): 3.57 µM
GI50 (OVCAR-8 ovarian): 3.26 µM
TGI (OVCAR-8 ovarian): > 100 µM
GI50 (HT29 colon): 1960 nM
TGI (HT29 colon): 4.88 µM
GI50 (M14 melanoma): 2030 nM
TGI (M14 melanoma): 5.39 µM
GI50 (HOP-62 NSCLC): 2750 nM
TGI (HOP-62 NSCLC): 7.2 µM
GI50 (UO-31 renal): 2260 nM
TGI (UO-31 renal): 34.9 µM
GI50 (COLO 205 colon): 1900 nM
TGI (COLO 205 colon): 3.42 µM
GI50 (CCRF-CEM leukemia): 1610 nM
TGI (CCRF-CEM leukemia): 9.83 µM
GI50 (SF-539 CNS): 2000 nM
TGI (SF-539 CNS): 4.84 µM
GI50 (OVCAR-4 ovarian): 2920 nM
TGI (OVCAR-4 ovarian): > 100 µM
GI50 (SK-MEL-28 melanoma): 3.46 µM
TGI (SK-MEL-28 melanoma): 25.5 µM
GI50 (KM12 colon): 2760 nM
TGI (KM12 colon): 9.1 µM
GI50 (CAKI-1 renal): 2150 nM
TGI (CAKI-1 renal): 7.08 µM
GI50 (SW-620 colon): 2990 nM
TGI (SW-620 colon): 13.8 µM
GI50 (NCI-H460 lung): 1610 nM
TGI (NCI-H460 lung): 4.46 µM
GI50 (K-562 leukemia): 2280 nM
TGI (K-562 leukemia): > 100 µM
GI50 (PC-3 prostate): 1710 nM
TGI (PC-3 prostate): 6.59 µM
GI50 (EKVX NSCLC): 2250 nM
TGI (EKVX NSCLC): > 100 µM
GI50 (HCT-15 colon): 2590 nM
TGI (HCT-15 colon): 11.4 µM
GI50 (DU-145 prostate): 4.87 µM
TGI (DU-145 prostate): > 100 µM
GI50 (ACHN renal): 2370 nM
TGI (ACHN renal): 9.12 µM
GI50 (NCI-H226 lung): 2330 nM
TGI (NCI-H226 lung): 7.76 µM
GI50 (SNB-19 CNS): 3.25 µM
TGI (SNB-19 CNS): > 100 µM
GI50 (A549 NSCLC): 2380 nM

From PubChem BioAssay (NCI)
